This is an account of results in ChEMBL document CHEMBL5113447, “Synthesis of baicalein derivatives and evaluation of their antiviral activity against arboviruses” (Bioorg Med Chem Lett, 2022).

Each structure is given as a SMILES string.

Broadly, the IC50 is the point on the concentration scale where inhibition reaches its midpoint. Usually CC50 stands for the concentration giving 50% cytotoxicity. For orientation: inhibition means the percentage by which the read-out fell short of the control.

Data set [1] deals with West Nile virus. Briefly: Antiviral activity against WNV infected in human Huh-7 cells assessed as inhibition of viral infection measured 24 hrs post infection by immunofluorescent assay. To be noted: Huh-7, 24 h. Type of data set: functional, organism-based.
The test system of data set [2] is Chikungunya virus. The data set is described as follows: Antiviral activity against CHIKV infected in human Huh-7 cells assessed as inhibition of viral infection by measuring EGFP-positive cells measured 24 hrs post infection by fluorescent microscopic analysis. Type of data set: functional, organism-based. To be noted: Huh-7, 24 h.
Data set [3] can be described thus: Cytotoxicity against human Huh-7 cells assessed as reduction in cell viability incubated for 24 hrs by CCK-8 assay. Type of data set: toxicity, cell-based.
The test system of data set [4] is Zika virus. Briefly: Potency index, ratio of baicalein IC50 to test compound IC50 for antiviral activity against ZIKV infected in human Huh-7 cells assessed as inhibition of viral infection measured 24 hrs post infection by immunofluorescent assay. Type of data set: functional.
The subject of data set [5] is Zika virus. Briefly: Antiviral activity against ZIKV infected in human Huh-7 cells assessed as inhibition of viral infection measured 24 hrs post infection by immunofluorescent assay. Type of data set: functional, organism-based. The settings on record: Huh-7, 24 h.
Data set [6] deals with Zika virus. The data set is described as follows: Antiviral activity against ZIKV infected in human Huh-7 cells assessed as inhibition of viral infection at 20 uM measured 24 hrs post infection by immunofluorescent assay relative to control. Type of data set: functional.
Data set [7] concerns West Nile virus. The data set is described as follows: Antiviral activity against WNV infected in human Huh-7 cells assessed as inhibition of viral infection at 20 uM measured 24 hrs post infection by immunofluorescent assay relative to control. Type of data set: functional.
For data set [8], the system named is West Nile virus. The data set is described as follows: Potency index, ratio of baicalein IC50 to test compound IC50 for antiviral activity against WNV infected in human Huh-7 cells assessed as inhibition of viral infection measured 24 hrs post infection by immunofluorescent assay. Type of data set: functional.
The test system of data set [9] is Chikungunya virus. The data set is described as follows: Potency index, ratio of baicalein IC50 to test compound IC50 for antiviral activity against CHIKV infected in human Huh-7 cells assessed as inhibition of viral infection by measuring EGFP-positive cells measured 24 hrs post infection by fluorescent microscopic analysis. Type of data set: functional.

For `O=c1cc(-c2ccccc2)oc2c(-c3ccc(F)cc3)c(O)c(O)c(O)c12`, the half-maximal inhibitory concentration (IC50) in data set [1] is 3.1 µM; in data set [2], 4.2 µM; in [5], 2.5 µM. Also, in data set [3], the CC50 at 24 h was > 100 µM. For the same molecule, in data set [4], the “Ratio IC50” value is recorded as >5.

Turning to `O=c1cc(-c2ccccc2)oc2c(-c3ccccc3)c(O)c(O)c(O)c12`, the IC50 in [1] turned out to be 3.1 µM; in [2] it was 5.8 µM; in data set [5] it was 5.8 µM. For the same molecule, the CC50 at 24 h in [3] was determined as 86.3 µM.

As for `O=c1cc(-c2ccccc2)oc2cc(O)c(O)c(O)c12` [BAICALEIN], the IC50 in data set [1] is 14.5 µM; in data set [2], 16.9 µM; in data set [5], 19.6 µM. Besides, in data set [3], the CC50 at 24 h was > 100 µM.

As for `COc1cc2oc(-c3ccccc3)cc(=S)c2c(OC)c1OC`, in [2], the IC50 is 9.7 µM. For the same molecule, the inhibition at 20 µM in data set [6] and in [7] was < 50% throughout. Besides, in [3], the CC50 at 24 h was > 100 µM.

With `Oc1c(O)c(O)c2c(=S)cc(-c3ccccc3)oc2c1-c1cccc(F)c1`, the IC50 in data set [2] turned out to be 9.7 µM. Moreover, the inhibition at 20 µM in [6] and in [7] was < 50% in each case. For the same molecule, in [3], the CC50 at 24 h was > 100 µM.

`COc1c(OC)c(OC)c2c(=O)cc(-c3ccccc3)oc2c1-c1ccc(OC(F)(F)F)cc1`: the IC50 in data set [2] was determined as 17.8 µM. In addition, the inhibition at 20 µM in [6] and in data set [7] was < 50% each time. For the same molecule, in data set [3], the CC50 at 24 h is > 100 µM.

On to `O=c1cc(-c2ccccc2)oc2c(-c3cc(F)cc(F)c3)c(O)c(O)c(O)c12`, for which the IC50 in data set [2] was 8.6 µM. Also, the inhibition at 20 µM in data set [6] and in [7] was < 50% throughout. Also, in data set [3], the cytotoxic concentration (CC50) at 24 h was > 100 µM.

`Oc1cc2oc(-c3ccccc3)cc(=S)c2c(O)c1O`: in data set [2], the IC50 stood at 7.6 µM. Further, the inhibition at 20 µM in data set [6] and in [7] was < 50% each time. Moreover, in data set [3], the CC50 at 24 h was > 100 µM.

With `Oc1c(O)c(O)c2c(=S)cc(-c3ccccc3)oc2c1-c1ccc(C(F)(F)F)cc1`, the 50% inhibitory concentration (IC50) stood at 2.1 µM in data set [1], 2.7 µM in data set [2] and 3.8 µM in data set [5]. Besides, the “Ratio IC50” value in data set [8] is on record as >6; in [9], >5; in [4] it was >5. Moreover, the CC50 at 24 h in data set [3] was > 100 µM.

Turning to `O=c1cc(-c2ccc(N3CCN(c4ccc(O)cc4)CC3)cc2)oc2cc(O)c(O)c(O)c12`, the values for the IC50 in data set [1], in [2] and in [5] were 6.6 µM, 5.9 µM and 6.9 µM, respectively. Further, the CC50 at 24 h in data set [3] was > 100 µM.

Turning to `Oc1c(O)c(O)c2c(=S)cc(-c3ccccc3)oc2c1-c1ccc(F)cc1`, the results for the IC50 in data set [1], in data set [2] and in data set [5] were 6.2 µM, 4.7 µM and 7.7 µM, respectively. Besides, in [3], the CC50 at 24 h is > 100 µM.

With `COc1cc2oc(-c3ccc(N4CCN(C)CC4)cc3)cc(=O)c2c(OC)c1OC`, the IC50 in data set [2] amounted to 11.5 µM. Further, the inhibition at 20 µM in data set [6] and in data set [7] was < 50% throughout. For the same molecule, in data set [3], the cytotoxic concentration (CC50) at 24 h was > 100 µM.

Regarding `O=c1cc(-c2ccccc2)oc2c(-c3cccc(F)c3)c(O)c(O)c(O)c12`, the IC50 in [1] turned out to be 2.9 µM; in [2], 4.3 µM; in data set [5], 3.5 µM. Besides, the CC50 at 24 h in [3] was > 100 µM. For the same molecule, in data set [4], the “Ratio IC50” value is recorded as >5.

As to `O=c1cc(-c2ccc(Nc3ccc(Cl)cc3)cc2)oc2cc(O)c(O)c(O)c12`, the IC50 in data set [1] is 2.4 µM; in data set [2], 3.4 µM; in [5], 1.9 µM. The “Ratio IC50” value in [8] is reported as >6; in [9], >5; in data set [4], >5. Moreover, the CC50 at 24 h in [3] was > 100 µM.

Regarding `Cc1ccc(-c2c(O)c(O)c(O)c3c(=O)cc(-c4ccccc4)oc23)cc1`, the IC50 in data set [2] came to 7.9 µM. Moreover, the inhibition at 20 µM in [6] and in data set [7] was < 50% in each case. In addition, in data set [3], the CC50 at 24 h is > 100 µM.

For `O=c1cc(-c2ccc(Nc3ccc(Br)cc3)cc2)oc2cc(O)c(O)c(O)c12`, the IC50 in [1] was determined as 4.1 µM; in data set [2], 5.2 µM; in data set [5], 6.7 µM. Moreover, the CC50 at 24 h in data set [3] was > 100 µM.

In the case of `CN1CCN(c2ccc(-c3cc(=O)c4c(O)c(O)c(O)cc4o3)cc2)CC1`, in data set [2], the IC50 is 8.9 µM. In addition, the inhibition at 20 µM in data set [6] and in data set [7] was < 50% throughout. In addition, the CC50 at 24 h in data set [3] was > 100 µM.

In the case of `Cc1cccc(-c2c(O)c(O)c(O)c3c(=O)cc(-c4ccccc4)oc23)c1`, the IC50 in data set [2] came out at 8.7 µM. Moreover, the inhibition at 20 µM in data set [6] and in data set [7] was < 50% throughout. Also, in data set [3], the CC50 at 24 h is > 100 µM.

Consider `O=c1cc(-c2ccc(N3CCN(c4cccc(Cl)c4)CC3)cc2)oc2cc(O)c(O)c(O)c12`, for which the IC50 came out at 5.1 µM in [1], 4.3 µM in data set [2] and 5.7 µM in data set [5]. Also, the CC50 at 24 h in [3] was > 100 µM.

Take `O=c1cc(-c2ccc(Nc3ccc(F)cc3)cc2)oc2cc(O)c(O)c(O)c12`: the IC50 in [1] amounted to 4.5 µM; in data set [2] it was 4.8 µM; in data set [5] it was 6.9 µM. For the same molecule, the CC50 at 24 h in data set [3] was > 100 µM.

On to `COc1cc2oc(-c3ccc(Nc4ccc(F)cc4)cc3)cc(=O)c2c(OC)c1OC`, for which the IC50 in data set [2] turned out to be 9.7 µM. Also, the inhibition at 20 µM in data set [6] and in data set [7] was < 50% each time. For the same molecule, the CC50 at 24 h in [3] came out at 77.6 µM.

On to `O=c1cc(-c2ccccc2)oc2c(-c3ccc(OC(F)(F)F)cc3)c(O)c(O)c(O)c12`, for which the IC50 in data set [1] was 6.4 µM; in data set [2], 5.2 µM; in data set [5], 8.3 µM. Moreover, the CC50 at 24 h in [3] is > 100 µM.
